In ChEMBL document CHEMBL3885881, “DrugMatrix”:

Organism: Rattus norvegicus
Test: DrugMatrix - Regimen: Daily Repeat
Assay type: toxicity, organism-based, Sprague-Dawley
Design: regimen Daily Repeat, gender Male, age 6-8 weeks
Conditions: in vivo, po, route oral GAVAGE; for ABSOLUTE BASOPHIL / ABSOLUTE EOSINOPHIL / ABSOLUTE LYMPHOCYTE / ABSOLUTE MONOCYTE / ABSOLUTE SEGMENTED NEUTROPHIL / BASOPHIL / EOSINOPHIL / ERYTHROCYTE COUNT / HEMATOCRIT / HEMOGLOBIN / LEUKOCYTE COUNT / LYMPHOCYTE / MEAN CORPUSCULAR HEMOGLOBIN / MEAN CORPUSCULAR HEMOGLOBIN CONCENTRATION / MEAN CORPUSCULAR VOLUME / MONOCYTE / NEUTROPHIL / NUCLEATED RED BLOOD CELLS / PLATELET COUNT: tissue Blood; for ALANINE AMINOTRANSFERASE / ALBUMIN / ALKALINE PHOSPHATASE / ASPARTATE AMINOTRANSFERASE / BLOOD UREA NITROGEN / CARBON DIOXIDE / CHLORIDE / CHOLESTEROL / CREATINE PHOSPHOKINASE / CREATININE / GLUCOSE / LACTATE DEHYDROGENASE / LIPASE / PHOSPHORUS / POTASSIUM / SODIUM / TOTAL BILIRUBIN / TOTAL PROTEIN / URIC ACID: tissue Plasma
[1] = 0 mg/kg, 72 h, dose level Control, time 3 day, […]
[2] = 0 mg/kg, 72 h, dose level Control, time 3 day, vehicle 100 % WATER
[3] = 0 mg/kg, 120 h, dose level Control, time 5 day, […]
[4] = 0 mg/kg, 120 h, dose level Control, time 5 day, vehicle 100 % WATER
[5] = 20 mg/kg, 72 h, dose level Low, time 3 day, […]
[6] = 20 mg/kg, 120 h, dose level Low, time 5 day, […]

Cn1cnc([N+](=O)[O-])c1Sc1ncnc2nc[nH]c12 [AZATHIOPRINE]
ABSOLUTE BASOPHIL [1]: 0 CELLS/uL
ABSOLUTE EOSINOPHIL [1]: 0 CELLS/uL
ABSOLUTE LYMPHOCYTE [1]: 7601 CELLS/uL
ABSOLUTE MONOCYTE [1]: 354.33 CELLS/uL
ABSOLUTE SEGMENTED NEUTROPHIL [1]: 744.67 CELLS/uL
BASOPHIL [1]: 0%
EOSINOPHIL [1]: 0%
ERYTHROCYTE COUNT [1]: 5.03 x10E6/uL
HEMATOCRIT [1]: 33.7%
HEMOGLOBIN [1]: 13.43 G/DL
LEUKOCYTE COUNT [1]: 8.7 x10E3/uL
LYMPHOCYTE [1]: 86.33%
MEAN CORPUSCULAR HEMOGLOBIN [1]: 26.7 pg
MEAN CORPUSCULAR HEMOGLOBIN CONCENTRATION [1]: 39.83 G/DL
MEAN CORPUSCULAR VOLUME [1]: 67 fL
MONOCYTE [1]: 4.67%
NEUTROPHIL [1]: 9%
NUCLEATED RED BLOOD CELLS [1]: 0 /100WBC
PLATELET COUNT [1]: 1151 x10E3/uL
ABSOLUTE EOSINOPHIL [2]: 91.5 CELLS/uL
ABSOLUTE LYMPHOCYTE [2]: 14108.83 CELLS/uL
ABSOLUTE MONOCYTE [2]: 81 CELLS/uL
ABSOLUTE SEGMENTED NEUTROPHIL [2]: 818.67 CELLS/uL
EOSINOPHIL [2]: 0.67%
ERYTHROCYTE COUNT [2]: 5.56 x10E6/uL
HEMATOCRIT [2]: 34.5%
HEMOGLOBIN [2]: 13.45 G/DL
LEUKOCYTE COUNT [2]: 15.1 x10E3/uL
LYMPHOCYTE [2]: 93%
MEAN CORPUSCULAR HEMOGLOBIN [2]: 24.2 pg
MEAN CORPUSCULAR HEMOGLOBIN CONCENTRATION [2]: 38.98 G/DL
MEAN CORPUSCULAR VOLUME [2]: 62.07 fL
MONOCYTE [2]: 0.5%
NEUTROPHIL [2]: 5.83%
PLATELET COUNT [2]: 1193.33 x10E3/uL
ALANINE AMINOTRANSFERASE [1]: 97.67 u/L
ALBUMIN [1]: 4.07 G/DL
ALKALINE PHOSPHATASE [1]: 607.67 u/L
ASPARTATE AMINOTRANSFERASE [1]: 101 u/L
BLOOD UREA NITROGEN [1]: 13.33 mg/dL
CARBON DIOXIDE [1]: 36 mmol/L
CHLORIDE [1]: 99.67 MEQ/L
CHOLESTEROL [1]: 75.67 mg/dL
CREATINE PHOSPHOKINASE [1]: 279.67 u/L
CREATININE [1]: 0.16 mg/dL
GLUCOSE [1]: 164 mg/dL
LACTATE DEHYDROGENASE [1]: 115 u/L
LIPASE [1]: 12.67 u/L
PHOSPHORUS [1]: 8.77 mg/dL
POTASSIUM [1]: 5.79 MEQ/L
SODIUM [1]: 142.83 MEQ/L
TOTAL BILIRUBIN [1]: 0.27 mg/dL
TOTAL PROTEIN [1]: 5.8 G/DL
URIC ACID [1]: 0.67 mg/dL
ALANINE AMINOTRANSFERASE [2]: 60.33 u/L
ALBUMIN [2]: 4 G/DL
ALKALINE PHOSPHATASE [2]: 334.83 u/L
ASPARTATE AMINOTRANSFERASE [2]: 74.5 u/L
BLOOD UREA NITROGEN [2]: 13.5 mg/dL
CARBON DIOXIDE [2]: 30.33 mmol/L
CHLORIDE [2]: 98.33 MEQ/L
CHOLESTEROL [2]: 71.17 mg/dL
CREATINE PHOSPHOKINASE [2]: 212 u/L
CREATININE [2]: 0.21 mg/dL
GLUCOSE [2]: 173.17 mg/dL
LACTATE DEHYDROGENASE [2]: 101.5 u/L
LIPASE [2]: 24.17 u/L
PHOSPHORUS [2]: 10.87 mg/dL
POTASSIUM [2]: 6.06 MEQ/L
SODIUM [2]: 140.58 MEQ/L
TOTAL BILIRUBIN [2]: 0.17 mg/dL
TOTAL PROTEIN [2]: 5.9 G/DL
URIC ACID [2]: 1.23 mg/dL
ABSOLUTE BASOPHIL [3]: 0 CELLS/uL
ABSOLUTE EOSINOPHIL [3]: 0 CELLS/uL
ABSOLUTE LYMPHOCYTE [3]: 4426.33 CELLS/uL
ABSOLUTE MONOCYTE [3]: 102.67 CELLS/uL
ABSOLUTE SEGMENTED NEUTROPHIL [3]: 337.67 CELLS/uL
BASOPHIL [3]: 0%
EOSINOPHIL [3]: 0%
ERYTHROCYTE COUNT [3]: 5.31 x10E6/uL
HEMATOCRIT [3]: 32.5%
HEMOGLOBIN [3]: 13.17 G/DL
LEUKOCYTE COUNT [3]: 4.87 x10E3/uL
LYMPHOCYTE [3]: 90.33%
MEAN CORPUSCULAR HEMOGLOBIN [3]: 24.93 pg
MEAN CORPUSCULAR HEMOGLOBIN CONCENTRATION [3]: 40.67 G/DL
MEAN CORPUSCULAR VOLUME [3]: 61.33 fL
MONOCYTE [3]: 2.33%
NEUTROPHIL [3]: 7.33%
NUCLEATED RED BLOOD CELLS [3]: 0.33 /100WBC
PLATELET COUNT [3]: 848.33 x10E3/uL
ABSOLUTE EOSINOPHIL [4]: 34.5 CELLS/uL
ABSOLUTE LYMPHOCYTE [4]: 8181 CELLS/uL
ABSOLUTE MONOCYTE [4]: 82.67 CELLS/uL
ABSOLUTE SEGMENTED NEUTROPHIL [4]: 435.17 CELLS/uL
EOSINOPHIL [4]: 0.5%
HEMATOCRIT [4]: 33.83%
HEMOGLOBIN [4]: 13.37 G/DL
LEUKOCYTE COUNT [4]: 8.73 x10E3/uL
LYMPHOCYTE [4]: 93.5%
MEAN CORPUSCULAR HEMOGLOBIN [4]: 25.2 pg
MEAN CORPUSCULAR HEMOGLOBIN CONCENTRATION [4]: 39.53 G/DL
MEAN CORPUSCULAR VOLUME [4]: 63.73 fL
MONOCYTE [4]: 1%
NEUTROPHIL [4]: 5%
NUCLEATED RED BLOOD CELLS [4]: 0 /100WBC
PLATELET COUNT [4]: 1057.33 x10E3/uL
ALANINE AMINOTRANSFERASE [3]: 59.67 u/L
ALBUMIN [3]: 3.87 G/DL
ALKALINE PHOSPHATASE [3]: 452 u/L
ASPARTATE AMINOTRANSFERASE [3]: 81.33 u/L
BLOOD UREA NITROGEN [3]: 13.67 mg/dL
CARBON DIOXIDE [3]: 26.33 mmol/L
CHLORIDE [3]: 103.67 MEQ/L
CHOLESTEROL [3]: 65.67 mg/dL
CREATINE PHOSPHOKINASE [3]: 355.33 u/L
CREATININE [3]: 0.14 mg/dL
GLUCOSE [3]: 171.33 mg/dL
LACTATE DEHYDROGENASE [3]: 118 u/L
LIPASE [3]: 11.33 u/L
PHOSPHORUS [3]: 11.13 mg/dL
POTASSIUM [3]: 5.18 MEQ/L
SODIUM [3]: 143.17 MEQ/L
TOTAL BILIRUBIN [3]: 0.2 mg/dL
TOTAL PROTEIN [3]: 5.87 G/DL
URIC ACID [3]: 0.63 mg/dL
ALANINE AMINOTRANSFERASE [4]: 54.33 u/L
ALBUMIN [4]: 4.07 G/DL
ALKALINE PHOSPHATASE [4]: 308.67 u/L
ASPARTATE AMINOTRANSFERASE [4]: 83.17 u/L
BLOOD UREA NITROGEN [4]: 14 mg/dL
CARBON DIOXIDE [4]: 34 mmol/L
CHLORIDE [4]: 98 MEQ/L
CHOLESTEROL [4]: 71.33 mg/dL
CREATINE PHOSPHOKINASE [4]: 266.5 u/L
CREATININE [4]: 0.27 mg/dL
GLUCOSE [4]: 133 mg/dL
LACTATE DEHYDROGENASE [4]: 127 u/L
LIPASE [4]: 11.67 u/L
PHOSPHORUS [4]: 10.6 mg/dL
POTASSIUM [4]: 6.17 MEQ/L
SODIUM [4]: 142.68 MEQ/L
TOTAL BILIRUBIN [4]: 0.15 mg/dL
TOTAL PROTEIN [4]: 6.03 G/DL
URIC ACID [4]: 0.75 mg/dL
ABSOLUTE BASOPHIL [5]: 0 CELLS/uL
ABSOLUTE EOSINOPHIL [5]: 0 CELLS/uL
ABSOLUTE LYMPHOCYTE [5]: 5839.67 CELLS/uL
ABSOLUTE MONOCYTE [5]: 204 CELLS/uL
ABSOLUTE SEGMENTED NEUTROPHIL [5]: 256.33 CELLS/uL
BASOPHIL [5]: 0%
EOSINOPHIL [5]: 0%
ERYTHROCYTE COUNT [5]: 4.55 x10E6/uL
HEMATOCRIT [5]: 29%
HEMOGLOBIN [5]: 11.47 G/DL
LEUKOCYTE COUNT [5]: 6.3 x10E3/uL
LYMPHOCYTE [5]: 93%
MEAN CORPUSCULAR HEMOGLOBIN [5]: 25.37 pg
MEAN CORPUSCULAR HEMOGLOBIN CONCENTRATION [5]: 39.7 G/DL
MEAN CORPUSCULAR VOLUME [5]: 64 fL
MONOCYTE [5]: 3%
NEUTROPHIL [5]: 4%
NUCLEATED RED BLOOD CELLS [5]: 0.33 /100WBC
PLATELET COUNT [5]: 1104.33 x10E3/uL
ALANINE AMINOTRANSFERASE [5]: 61 u/L
ALBUMIN [5]: 4.2 G/DL
ALKALINE PHOSPHATASE [5]: 326.33 u/L
ASPARTATE AMINOTRANSFERASE [5]: 82 u/L
BLOOD UREA NITROGEN [5]: 14 mg/dL
CARBON DIOXIDE [5]: 39.33 mmol/L
CHLORIDE [5]: 106.33 MEQ/L
CHOLESTEROL [5]: 92.67 mg/dL
CREATINE PHOSPHOKINASE [5]: 229 u/L
CREATININE [5]: 0.21 mg/dL
GLUCOSE [5]: 156.33 mg/dL
LACTATE DEHYDROGENASE [5]: 82.67 u/L
LIPASE [5]: 11 u/L
PHOSPHORUS [5]: 9.27 mg/dL
POTASSIUM [5]: 5.07 MEQ/L
SODIUM [5]: 137.8 MEQ/L
TOTAL BILIRUBIN [5]: 0.1 mg/dL
TOTAL PROTEIN [5]: 6.23 G/DL
URIC ACID [5]: 0.5 mg/dL
ABSOLUTE BASOPHIL [6]: 0 CELLS/uL
ABSOLUTE EOSINOPHIL [6]: 0 CELLS/uL
ABSOLUTE LYMPHOCYTE [6]: 5125.67 CELLS/uL
